Series [1] deals with T1, SFRP-1 (Homo sapiens, UniProt Q8N474).
T1 sequence (Q8N474 32-314): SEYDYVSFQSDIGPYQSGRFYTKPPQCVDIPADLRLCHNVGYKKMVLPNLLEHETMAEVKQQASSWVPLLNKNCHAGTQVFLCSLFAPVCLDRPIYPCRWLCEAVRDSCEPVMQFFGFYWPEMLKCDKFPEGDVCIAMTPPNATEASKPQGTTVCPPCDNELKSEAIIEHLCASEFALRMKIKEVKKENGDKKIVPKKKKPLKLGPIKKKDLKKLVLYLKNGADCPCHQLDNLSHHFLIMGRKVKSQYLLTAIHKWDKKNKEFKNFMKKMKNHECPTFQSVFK
The series is described as follows: Fluorescence polarization binding assay (competitive displacement of a probe compound from SFRP-1).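 Also: test compound competes with a fluorescent probe held by SFRP-1, seen as a drop in probe anisotropy after incubation in darkness, with anisotropy as function of rising compound dose.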 Conditions: fluorescence anisotropy, 45 nM SFRP-1, 20 nM probe. In general terms: In fluorescence polarisation assays a small probe gives low polarisation when free and higher when bound to something large.

Series [2] addresses T1, SFRP-1. Kind of series: Cell-based assay for in vitro measurement of SFRP-1/SARP2 antagonist activity (U2OS cells co-transfected with 16x TCF-tk-Luciferase reporter, Wnt and hSFRP-1).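 Also: U2OS cells co-transfected with a TCF-tk luciferase reporter, a Wnt vector, hSFRP-1 or empty vector and CMV-βgal, luciferase luminescence read in cell lysates alongside βgal activity.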 On the technique in general: Reporter assays use an easily measured gene product as a stand-in for the process of interest.
[3] abbreviates: U2OS, read-out: Fold Induction with SFRP-1, Conc 15 μM, with SFRP-1, fold induction over SFRP-1 control, single dose.
The mark [4] stands for this setting: U2OS, read-out: Fold Induction without SFRP-1, Conc 15 μM, without SFRP-1, single dose.
The mark [5] stands for this setting: Conc 15 μM, with SFRP-1, fold induction over SFRP-1 control, single dose.

Where “and” joins values, the source holds several entries; their conditions need not be identical. Equal entries are not always repeated. Where two headings read alike, the source gives them in different places.

Broadly, the IC50 is the concentration at which inhibition is half-maximal. A higher IC50 goes with a need for much substance. For orientation: EC50 means the concentration that produces a half-maximal response. A low value points to an effect from little substance. Compound `C[C@@H](NS(=O)(=O)c1cc(S(=O)(=O)c2ccccc2)ccc1C(F)(F)F)[C@H](O)c1ccccc1` (relative stereo) [Example 684, N-[(1R*,2R*)-2-hydroxy-1-methyl-2-phenylethyl]-5-(phenylsulfonyl)-2-(trifluoromethyl)benzenesulfonamide] displayed an IC50 on SFRP-1 [1] of 1000 nM. The same compound showed an EC50 at SFRP-1 [2] of 29300 nM. Further, the fold induction at 10 µM at SFRP-1 [2] (U2OS, read-out: Fold Induction with SFRP-1, U2OS cells, single dose 10 μM, luciferase reporter, fold induction over SFRP-1 control) came out at 1.7.

As for `Cc1ccc(S(=O)(=O)c2ccc(F)cc2)cc1S(=O)(=O)NCCN1CCOCC1` [Example 169, 5-[(4-fluorophenyl)sulfonyl]-2-methyl-N-(2-morpholin-4-ylethyl)benzenesulfonamide], on SFRP-1 [1], the IC50 was found to be 13000 nM. Moreover, the values for the fold induction at 15 µM at SFRP-1 [2] (setting [3]) and at SFRP-1 [2] (setting [4]) were 2.6 and 0.9, respectively.

In the case of `Cc1ccc(S(=O)(=O)c2ccc(F)cc2)cc1S(=O)(=O)NCCCn1ccnc1` [Example 177, 5-[(4-fluorophenyl)sulfonyl]-N-[3-(1H-imidazol-1-yl)propyl]-2-methylbenzenesulfonamide], on SFRP-1 [1], the IC50 amounted to 2900 nM. In addition, the fold induction at 14 µM at SFRP-1 [2] (U2OS, read-out: Fold Induction with SFRP-1, Conc 14 μM, with SFRP-1, fold induction over SFRP-1 control, single dose) was determined as 2.9; at SFRP-1 [2] (U2OS, read-out: Fold Induction without SFRP-1, Conc 14 μM, without SFRP-1, single dose) it was 1. Also, the fold induction at 15 µM at SFRP-1 [2] (setting [3]) came out at 3.6; at SFRP-1 [2] (setting [4]), 1.

In turn, `COC(=O)CCNS(=O)(=O)c1cc(S(=O)(=O)c2ccccc2)ccc1C` [Example 204, methyl N-{[2-methyl-5-(phenylsulfonyl)phenyl]sulfonyl}-beta-alaninate] gave an IC50 on SFRP-1 [1] of 8000 nM. For the same compound, the fold induction at 15 µM at SFRP-1 [2] (setting [3]) was 3.4; on SFRP-1 [2] (setting [4]), 1.1.

Take `Cc1ccc(S(=O)(=O)c2ccccc2)cc1S(=O)(=O)NCCc1ccccn1` [Example 205, 2-methyl-5-(phenylsulfonyl)-N-(2-pyridin-2-ylethyl)benzenesulfonamide]: at SFRP-1 [1], the IC50 amounted to 3000 nM. The figures for the fold induction at 15 µM at SFRP-1 [2] (setting [3]) and at SFRP-1 [2] (setting [4]) were 2.3 and 0.8, respectively.

On to `Cc1ccc(S(=O)(=O)c2ccccc2)cc1S(=O)(=O)NCCCn1ccnc1` [Example 219, N-[3-(1H-imidazol-1-yl)propyl]-2-methyl-5-(phenylsulfonyl)benzenesulfonamide], for which the IC50 at SFRP-1 [1] was 3000 nM and 1100 nM and 2100 nM. Besides, the “Fold Induction with SFRP-1” value at SFRP-1 [2] (setting [5]) was determined as 3.6 fold. Moreover, the fold induction at 15 µM on SFRP-1 [2] (setting [3]) was determined as 3; on SFRP-1 [2] (setting [4]) it was 1.1.

In turn, `CCc1ccc(S(=O)(=O)c2ccccc2)cc1S(=O)(=O)NCCc1ccccn1` [Example 223, 2-ethyl-5-(phenylsulfonyl)-N-(2-pyridin-2-ylethyl)benzenesulfonamide] gave an IC50 on SFRP-1 [1] of 900 nM. The figures for the fold induction at 15 µM on SFRP-1 [2] (setting [3]) and on SFRP-1 [2] (setting [4]) were 2.6 and 0.8, respectively.

Compound `CCc1ccc(S(=O)(=O)c2ccccc2)cc1S(=O)(=O)NCCN1CCOCC1` [Example 226, 2-ethyl-N-(2-morpholin-4-ylethyl)-5-(phenylsulfonyl)benzenesulfonamide] had an IC50 on SFRP-1 [1] of 2600 nM. The fold induction at 15 µM is 3 at SFRP-1 [2] (setting [3]) and 0.7 at SFRP-1 [2] (setting [4]).

`CCc1ccc(S(=O)(=O)c2ccccc2)cc1S(=O)(=O)NCCCOC` [Example 227, 2-ethyl-N-(3-methoxypropyl)-5-(phenylsulfonyl)benzenesulfonamide] had an IC50 on SFRP-1 [1] of 4000 nM. In addition, the fold induction at 15 µM on SFRP-1 [2] (setting [3]) worked out at 2.7; on SFRP-1 [2] (setting [4]), 0.8.

Consider `CCc1ccc(S(=O)(=O)c2ccccc2)cc1S(=O)(=O)NCCCN(C)C` [Example 228, N-[3-(dimethylamino)propyl]-2-ethyl-5-(phenylsulfonyl)benzenesulfonamide], for which the 50% inhibitory concentration (IC50) at SFRP-1 [1] is 8000 nM and 15000 nM. Moreover, the results for the fold induction at 15 µM on SFRP-1 [2] (setting [3]) and at SFRP-1 [2] (setting [4]) were 3.3 and 1.2, respectively.

In the case of `CCc1ccc(S(=O)(=O)c2ccccc2)cc1S(=O)(=O)NCCCN(CC)CC` [Example 230, N-[3-(diethylamino)propyl]-2-ethyl-5-(phenylsulfonyl)benzene sulfonamide], the IC50 on SFRP-1 [1] worked out at 16000 nM. For the same compound, the fold induction at 15 µM stood at 3.2 at SFRP-1 [2] (setting [3]) and 1.2 on SFRP-1 [2] (setting [4]).

Turning to `CCc1ccc(S(=O)(=O)c2ccccc2)cc1S(=O)(=O)NCCCn1ccnc1` [Example 231, 2-ethyl-N-[3-(1H-imidazol-1-yl)propyl]-5-(phenylsulfonyl)benzenesulfonamide], the IC50 on SFRP-1 [1] was 300 nM and 600 nM. The “Fold Induction with SFRP-1” value at SFRP-1 [2] (setting [5]) was found to be 2.8 fold. Also, the “Fold Induction without SFRP-1” value on SFRP-1 [2] (Conc 15 μM, without SFRP-1, single dose) is listed as 0.8 fold. Moreover, the values for the fold induction at 15 µM on SFRP-1 [2] (setting [3]) and at SFRP-1 [2] (setting [4]) were 3.4 and 1, respectively.

`CC(C)c1ccc(S(=O)(=O)c2ccccc2)cc1S(=O)(=O)NCCc1ccccc1` [Example 295, 2-isopropyl-N-(2-phenylethyl)-5-(phenylsulfonyl)benzenesulfonamide] gave an IC50 on SFRP-1 [1] of 300 nM. Also, the fold induction at 15 µM worked out at 2.7 at SFRP-1 [2] (setting [3]) and 1.5 at SFRP-1 [2] (setting [4]).

At SFRP-1 [1], `CC(C)c1ccc(S(=O)(=O)c2ccccc2)cc1S(=O)(=O)NCCCn1ccnc1` [Example 296, N-[3-(1H-imidazol-1-yl)propyl]-2-isopropyl-5-(phenylsulfonyl)benzenesulfonamide] displayed an IC50 of 200 nM. Besides, the fold induction at 15 µM on SFRP-1 [2] (setting [3]) amounted to 3.3; at SFRP-1 [2] (setting [4]) it was 1.4.

On to `CCc1ccc(S(=O)(=O)c2ccc(F)cc2)cc1S(=O)(=O)NCCn1ccnc1` [Example 297, 2-ethyl-5-[(4-fluorophenyl)sulfonyl]-N-[2-(1H-imidazol-1-yl)ethyl]benzenesulfonamide], for which the IC50 at SFRP-1 [1] stood at 400 nM. Further, the fold induction at 15 µM turned out to be 4.3 on SFRP-1 [2] (setting [3]) and 1.4 at SFRP-1 [2] (setting [4]).

With `Cc1ccc(S(=O)(=O)c2ccccc2)cc1S(=O)(=O)NC1CCOCC1` [Example 298, 2-methyl-5-(phenylsulfonyl)-N-tetrahydro-2H-pyran-4-ylbenzenesulfonamide], the IC50 on SFRP-1 [1] is 800 nM. The fold induction at 15 µM on SFRP-1 [2] (setting [3]) was determined as 3.2; at SFRP-1 [2] (setting [4]) it was 1.3.

With `CCc1ccc(S(=O)(=O)c2ccc(F)cc2)cc1S(=O)(=O)NCCCn1ccnc1` [Example 303, 2-ethyl-5-[(4-fluorophenyl)sulfonyl]-N-[3-(1H-imidazol-1-yl)propyl]benzenesulfonamide], at SFRP-1 [1], the IC50 is 700 nM. In addition, the fold induction at 15 µM on SFRP-1 [2] (setting [3]) was 2.7; on SFRP-1 [2] (setting [4]) it was 0.8.

Turning to `CNc1ccc(S(=O)(=O)c2ccc(C)c(S(=O)(=O)NCCCn3ccnc3)c2)cc1` [Example 310, N-[3-(1H-imidazol-1-yl)propyl]-2-methyl-5-{[4-(methylamino)phenyl]sulfonyl}benzenesulfonamide], the IC50 on SFRP-1 [1] was determined as 400 nM. For the same compound, the figures for the fold induction at 15 µM at SFRP-1 [2] (setting [3]) and at SFRP-1 [2] (setting [4]) were 2.9 and 1.1, respectively.

`CCNc1ccc(S(=O)(=O)c2ccc(C)c(S(=O)(=O)NCCCn3ccnc3)c2)cc1` [Example 311, 5-{[4-(ethylamino)phenyl]sulfonyl}-N-[3-(1H-imidazol-1-yl)propyl]-2-methylbenzenesulfonamide] yielded an IC50 at SFRP-1 [1] of 400 nM. The results for the fold induction at 15 µM at SFRP-1 [2] (setting [3]) and at SFRP-1 [2] (setting [4]) were 2.4 and 1, respectively.

As to `Cc1ccc(S(=O)(=O)c2ccc(N3CCOCC3)cc2)cc1S(=O)(=O)NCCCn1ccnc1` [Example 313, N-[3-(1H-imidazol-1-yl)propyl]-2-methyl-5-[(4-morpholin-4-ylphenyl)sulfonyl]benzenesulfonamide], on SFRP-1 [1], the IC50 is 500 nM. Besides, the fold induction at 15 µM at SFRP-1 [2] (setting [3]) came to 1.9; on SFRP-1 [2] (setting [4]) it was 1.

(Values after patent US20060276464A1, “Diarylsulfone sulfonamides and use thereof” (Wyeth, priority 2005, published 2006).)
